Measurements: patent US10053453B2, “Compounds and their use as BACE inhibitors” (AstraZeneca AB, priority 2014, dated 2018)
Where two headings read alike, the source gives them in different places.

What was measured:
SH-SY5Y cells = assay: sAPPβ release assay
Experimental: Cells were thawed and seeded at a concentration of around 10000 cells/well in DMEM/F-12 with Glutamax, 10% FCS and 1% non-essential amino acids to a 384-well tissue culture treated plate, 30 μL cell susp/well. The cell plates were then incubated for 7-24 h at 37° C., 5% CO2.
The cell medium was removed, followed by addition of 50 μL compound diluted in DMEM/F-12 with Glutamax, 10% FCS, 1% non-essential amino acids to a final cone of 0.5% DMSO. The compounds were incubated with the cells for 16-17 h (overnight) at 37° C., 5% CO2.
Meso Scale Discovery (MSD) plates were used for the detection of sAPP release. MSD sAPPβ plates were blocked in 1% BSA in Tris wash buffer for 1 h on shake at r.t. and washed 1 time in Tris wash buffer. […] The MSD plates were incubated with shaking at r.t. for 2 h and the media discarded. 10 μL detection antibody was added (1 nM) per well followed by incubation with shaking at r.t. for 2 h and then discarded. 35 μL Read Buffer was added per well and the plates were read in a Meso Scale Discovery SECTOR6000 Imager.

Human BACE1 = target: T1, Human BACE1 (Homo sapiens, UniProt P56817); assay: Diluted TR-FRET assay; format: biochemical; conditions: 50 times less enzyme, 6.5 h reaction time at r.t.; read-out: IC50 BACE1 (dil. TR-FRET)
T1 construct: the soluble part of the human β-Secretase1 (AA1-AA460) was cloned using the BACE1(1-460)-(AVT)-Fc-pGEN-IRES-neo mammalian expression vector; AVT linker (C); made in house
T1 sequence (P56817 22-460): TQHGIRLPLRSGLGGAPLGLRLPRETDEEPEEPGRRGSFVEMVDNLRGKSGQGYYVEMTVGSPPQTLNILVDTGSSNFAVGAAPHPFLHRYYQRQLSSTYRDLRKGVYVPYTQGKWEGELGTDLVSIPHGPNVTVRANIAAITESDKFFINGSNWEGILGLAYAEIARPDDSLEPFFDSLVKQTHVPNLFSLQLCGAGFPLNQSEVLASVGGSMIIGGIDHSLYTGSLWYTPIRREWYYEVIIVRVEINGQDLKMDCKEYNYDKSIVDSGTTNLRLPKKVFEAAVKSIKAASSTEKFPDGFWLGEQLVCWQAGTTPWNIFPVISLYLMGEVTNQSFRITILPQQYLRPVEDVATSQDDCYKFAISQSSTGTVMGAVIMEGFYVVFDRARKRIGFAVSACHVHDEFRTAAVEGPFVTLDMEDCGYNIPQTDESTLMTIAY
Experimental: (§1) The β-secretase enzyme used in the TR-FRET was prepared as follows:
(§2) Human BACE1: the cDNA for the soluble part of the human β-Secretase1 (AA1-AA460) was cloned using the BACE1(1-460)-(AVT)-Fc-pGEN-IRES-neo mammalian expression vector. The gene was fused to the Fe domain of IgG1 (affinity tag) and stably cloned into HEK 293 cells. […]
A multidrop Combi was used for the liquid handling. Enzyme (7 μL) was added to the compound plate (containing 0.8 μL of compound in dimethylsulphoxide). The plate was incubated for 10 minutes. […] The reaction was stopped with the addition of Stop solution (5.5 μL, NaOAC, pH 9). Fluorescence was measured on a Pherastar plate reader using HTRF module. […] 5 reference inhibitors with different affinities were used at all screen occasions in dose response.

Human BACE2 = target: T2, Human BACE2 (Homo sapiens, UniProt Q9Y5Z0); assay: TR-FRET assay; format: biochemical; conditions: enzyme 2.7 μg/mL, substrate 100 nM, pH4.5
T2 construct: the soluble part of the human β-Secretase2 (AA1-AA473) was cloned using BACE2(1-473)-(AVT)-Fc-pDEST12.2 mammalian expression vector; AVT linker (C); made in house
T2 sequence (Q9Y5Z0 21-473): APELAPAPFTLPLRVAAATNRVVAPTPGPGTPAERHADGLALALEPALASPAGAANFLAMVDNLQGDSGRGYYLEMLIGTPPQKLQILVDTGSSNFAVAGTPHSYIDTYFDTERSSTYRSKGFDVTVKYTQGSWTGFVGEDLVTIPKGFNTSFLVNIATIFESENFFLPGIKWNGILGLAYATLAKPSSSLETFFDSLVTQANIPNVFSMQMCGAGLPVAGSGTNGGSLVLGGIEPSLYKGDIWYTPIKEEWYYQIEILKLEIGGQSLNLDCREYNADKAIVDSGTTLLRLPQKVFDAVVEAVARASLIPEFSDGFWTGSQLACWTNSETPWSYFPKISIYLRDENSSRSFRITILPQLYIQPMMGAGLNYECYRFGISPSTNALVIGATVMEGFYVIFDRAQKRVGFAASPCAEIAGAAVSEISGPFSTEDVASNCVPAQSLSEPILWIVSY
Experimental: as §1, §2
A multidrop Combi was used for the liquid handling. Enzyme (7 μL) was added to the compound plate (containing 0.8 μL of compound in dimethylsulphoxide). The plate was incubated for 10 minutes. Substrate (8 μL) was then added, and the reaction proceeded for 17 minutes at r.t. The reaction was stopped with the addition of Stop solution (5.5 μL, NaOAC, pH 9). Fluorescence was measured on a Pherastar plate reader using HTRF module. […] 5 reference inhibitors with different affinities were used at all screen occasions in dose response.

[1] = read-out: IC50 Cell (sAPPβ release), SH-SY5Y cells, compounds incubated 16-17 h
[2] = Homo sapiens, SH-SY5Y, read-out: IC50 Cell (sAPPβ release, nM)
[3] = Homo sapiens, SH-SY5Y, read-out: IC50 Cell (sAPPβ release, nM), SH-SY5Y cells, compounds incubated 16-17 h

IC50 (Human BACE2) [nM]	IC50 (SH-SY5Y cells; [3]) [nM]	SMILES	IC50 (SH-SY5Y cells; [2]) [nM]	further results
		COC1CCC2(CC1)Cc1ccc(-c3cc(Cl)cc(C#N)c3)cc1C21COC(N)=N1 (centres unmarked) [Compound 18, 3-((1r,4r)-2″-amino-4-methoxy-3′H,5″H-dispiro[cyclohexane-1,2′-indene-1′,4″-oxazol]-6′-yl-5″,5″-d2)-5-chlorobenzonitrile]		IC50 (SH-SY5Y cells; [1]): 3.3 nM
		[2H]C1([2H])OC(N)=N[C@]12c1cc(-c3cccnc3)ccc1C[C@]21CC[C@@H](OC)CC1 [Compound 117, {(1r,1′R,4R)-4-methoxy-6′-(pyrimidin-3-yl)-3′H,5″H-dispiro[cyclohexane-1,2′-indene-1′,4″-oxazol]-5″,5″-d2-2″-amine}]	7	IC50 (Human BACE1): 341 nM
895	1.5	[2H]C([2H])([2H])O[C@@H]1CC[C@]2(Cc3ccc(-c4cccnc4F)cc3[C@]23N=C(N)OC3([2H])[2H])C[C@H]1C [Compound 78, (1R,1′R,3R,4R)-6′-(2-fluoropyridin-3-yl)-4-(methoxy-d3)-3-methyl-3′H,5″H-dispiro[cyclohexane-1,2′-indene-1′,4″-oxazol]-5″,5″-d2-2″-amine]		
	0.39	[2H]C([2H])([2H])O[C@H]1CC[C@@]2(Cc3ccc(-c4cccnc4F)cc3[C@]23N=C(N)OC3([2H])[2H])C[C@@H]1C [Compound 74, (1S,1′R,3S,4S)-6′-(2-fluoropyridin-3-yl)-4-(methoxy-d3)-3-methyl-3′H,5″H-dispiro[cyclohexane-1,2′-indene-1′,4″-oxazol]-5″,5″-d2-2″-amine]		
		[2H]C1([2H])OC(N)=N[C@]12c1cc(-c3cncnc3)ccc1C[C@@]21CC[C@H](OC)[C@@H](CC)C1 [Compound 68, (1S,1′R,3S,4S)-3-ethyl-4-methoxy-6′-(pyrimidin-5-yl)-3′H,5″H-dispiro[cyclohexane-1,2′-indene-1′,4″-oxazol]-5″,5″-d2-2″-amine]	1.9	
		[2H]C1([2H])OC(N)=NC12c1cc(-c3cc(Cl)cc(C#N)c3)ccc1C[C@@]21C[C@@H](C)[C@H](OC)[C@@H](C)C1 (stereo partly drawn) [Compound 52, 3-((1r,3R,4r,5S)-2″-amino-4-methoxy-3,5-dimethyl-3′H,5″H-dispiro[cyclohexane-1,2′-indene-1′,4″-oxazol]-6′-yl-5″,5″-d2)-5-chlorobenzonitrile]		IC50 (Human BACE1): 4.7 nM; IC50 (SH-SY5Y cells; [1]): 4.3 nM
		[2H]C([2H])([2H])O[C@H]1CC[C@@]2(Cc3ccc(-c4cncnc4)cc3[C@]23N=C(N)OC3([2H])[2H])C[C@@H]1C [Compound 71, (1S,1′R,3S,4S)-4-(methoxy-d3)-3-methyl-6′-(pyrimidin-5-yl)-3′H,5″H-dispiro[cyclohexane-1,2′-indene-1′,4″-oxazol]-5″,5″-d2-2″-amine]	1.3	
134	< 0.16	[2H]C([2H])([2H])O[C@H]1CC[C@@]2(Cc3ccc(-c4cncc(F)c4)cc3[C@]23N=C(N)OC3([2H])[2H])C[C@@H]1C [Compound 66, (1S,1′R,3S,4S)-6′-(5-fluoropyridin-3-yl)-4-(methoxy-d3)-3-methyl-3′H,5″H-dispiro[cyclohexane-1,2′-indene-1′,4″-oxazol]-5″,5″-d2-2″-amine]		
		CO[C@@H]1CC[C@]2(Cc3ccc(-c4cncnc4)cc3[C@@]23COC(N)=N3)C[C@H]1C [Compound 33, (1R,1′R,3R,4R)-4-methoxy-3-methyl-6′-(pyrimidin-5-yl)-3′H,5″H-dispiro[cyclohexane-1,2′-indene-1′,4″-oxazol]-2″-amine]	2.2	
135	1.8	[2H]C1([2H])OC(N)=N[C@]12c1cc(-c3cncc(F)c3)ccc1C[C@]21CC[C@@H](OC)[C@H](C)C1 [Compound 25, (1R,1′R,3R,4R)-6′-(5-fluoropyridin-3-yl)-4-methoxy-3-methyl-3′H,5″H-dispiro[cyclohexane-1,2′-indene-1′,4″-oxazol]-5″,5″-d2-2″-amine]		
		[2H]C([2H])([2H])O[C@@H]1CC[C@]2(Cc3ccc(-c4cncnc4)cc3[C@]23N=C(N)OC3([2H])[2H])C[C@H]1C [Compound 73, (1R,1′R,3R,4R)-4-(methoxy-d3)-3-methyl-6′-(pyrimidin-5-yl)-3′H,5″H-dispiro[cyclohexane-1,2′-indene-1′,4″-oxazol]-5″,5″-d2-2″-amine]	6.1	
458	1.8	[2H]C1([2H])OC(N)=N[C@]12c1cc(-c3cc(F)cnc3F)ccc1C[C@]21CC[C@@H](OC)[C@H](C)C1 [Compound 109, {(1R,1′R,3R,4R)-6′-(2,5-difluoropyridin-3-yl)-4-methoxy-3-methyl-3′H,5″H-dispiro[cyclohexane-1,2′-indene-1′,4″-oxazol]-5″,5″-d2-2″-amine}]		
		CO[C@H]1CC[C@]2(CC1)Cc1ccc(-c3cncc(C)c3)cc1[C@@]21COC(N)=N1 [Compound 77, (1r,1′R,4R)-4-methoxy-6′-(5-methylpyridin-3-yl)-3′H,5″H-dispiro[cyclohexane-1,2′-indene-1′,4″-oxazol]-2″-amine]	7.5	
736	1.7	[2H]C1([2H])OC(N)=N[C@]12c1cc(-c3cccnc3F)ccc1C[C@]21CC[C@@H](OC)[C@H](C)C1 [Compound 67, (1R,1′R,3R,4R)-6′-(2-fluoropyridin-3-yl)-4-methoxy-3-methyl-3′H,5″H-dispiro[cyclohexane-1,2′-indene-1′,4″-oxazol]-5″,5″-d2-2″-amine]		
		CO[C@H]1CC[C@]2(CC1)Cc1ccc(-c3cncc(C)c3)cc1C21COC(N)=N1 (some centres unmarked) [Compound 41, (1r,4r)-4-methoxy-6′-(5-methylpyridin-3-yl)-3′H,5″H-dispiro[cyclohexane-1,2′-indene-1′,4″-oxazol]-2″-amine]	5.1	
		[2H]C1([2H])OC(N)=N[C@]12c1cc(-c3cncnc3)ccc1C[C@]21CC[C@@H](OC)[C@H](CC)C1 [Compound 75, (1R,1′R,3R,4R)-3-ethyl-4-methoxy-6′-(pyrimidin-5-yl)-3′H,5″H-dispiro[cyclohexane-1,2′-indene-1′,4″-oxazol]-5″,5″-d2-2″-amine]	0.9	
		[2H]C1([2H])OC(N)=NC12c1cc(-c3cc(C#N)cc(OC)c3)ccc1C[C@]21CC[C@@H](OC)CC1 (some centres unmarked) [Compound 36, 3-((1r,4r)-2″-amino-4-methoxy-3′H,5″H-dispiro[cyclohexane-1,2′-indene-1′,4″-oxazol]-6′-yl-5″,5″-d2)-5-methoxybenzonitrile]	4	
207	2.1	[2H]C([2H])([2H])O[C@@H]1CC[C@]2(Cc3ccc(-c4cncc(F)c4)cc3[C@]23N=C(N)OC3([2H])[2H])C[C@H]1C [Compound 79, (1R,1′R,3R,4R)-6′-(5-fluoropyridin-3-yl)-4-(methoxy-d3)-3-methyl-3′H,5″H-dispiro[cyclohexane-1,2′-indene-1′,4″-oxazol]-5″,5″-d2-2″-amine]		
118	0.5	[2H]C1([2H])OC(N)=N[C@]12c1cc(-c3cncc(F)c3)ccc1C[C@@]21CC[C@H](OC)[C@@H](C)C1 [Compound 9, (1S,1′R,3S,4S)-6′-(5-fluoropyridin-3-yl)-4-methoxy-3-methyl-3′H,5″H-dispiro[cyclohexane-1,2′-indene-1′,4″-oxazol]-5″,5″-d2-2″-amine]		
231	0.5	[2H]C1([2H])OC(N)=N[C@]12c1cc(-c3cc(F)cnc3F)ccc1C[C@@]21CC[C@H](OC)[C@@H](C)C1 [Compound 76, (1S,1′R,3S,4S)-6′-(2,5-difluoropyridin-3-yl)-4-methoxy-3-methyl-3′H,5″H-dispiro[cyclohexane-1,2′-indene-1′,4″-oxazol]-5″,5″-d2-2″-amine]		
888	1.6	[2H]C1([2H])OC(N)=N[C@]12c1cc(-c3cccnc3F)ccc1C[C@@]21CC[C@H](OC)[C@@H](C)C1 [Compound 5, (1S,1′R,3S,4S)-6′-(2-fluoropyridin-3-yl)-4-methoxy-3-methyl-3′H,5″H-dispiro[cyclohexane-1,2′-indene-1′,4″-oxazol]-5″,5″-d2-2″-amine]		
